Data: ChEMBL document CHEMBL6109146, “Discovery of New Pyrazolone Carbothioamide Derivatives as Potent Antifungal Agents for the Treatment of Candidiasis and Cryptococcosis” (J Med Chem, 2025)
In brackets after ≈: the same amount, converted by molar mass. Activity calls are given as the source filed them. The calls are words filed in the database; no cut-off is given here.

What was measured:
Nakaseomyces glabratus [1] = test: Antifungal activity against Candida glabrata 0161 infected in candidiasis female ICR mouse model assessed as reduction in fungal burden in kidney at 20 mg/kg, po pre-infected with fungi for 3 hrs followed by compound administration and measured after 5 days; assay type: functional, organism-based; conditions: time 5.0 day
Cryptococcus neoformans [2] = test: (§1) Antifungal activity against Cryptococcus neoformans H99 infected in cryptococcosis female ICR mouse model assessed as reduction in cytoplasmic loosening at 20 mg/kg, ip pre-infected with fungi for 3 hrs followed by compound administration and measured after 5 days by H and E staining based analysis; assay type: functional, organism-based; conditions: time 5.0 day
[3] = Cytotoxicity against human L02 cells assessed as inhibition of cell proliferation incubated for 48 hrs by WST-8 reagent based assay; assay type: toxicity
Cryptococcus neoformans [4] = test: as §1, with “intact cellular structures” for “reduction”, “brain cortex” for “cytoplasmic loosening”; assay type: functional, organism-based; conditions: time 5.0 day
[Candida] auris [5] = Antifungal activity against Candida auris 0029 assessed as inhibition of fungal growth incubated for 48 to 72 hrs by microplate reader analysis; assay type: functional, organism-based; conditions: Candidozyma auris, time 48-72 hrs
Cryptococcus neoformans [6] = test: Antifungal activity against Cryptococcus neoformans H99 assessed as inhibition of fungal growth by measuring fold increase in MIC in presence of Fe(III) ion; assay type: functional
Nakaseomyces glabratus [7] = test: Inhibition of biofilm formation in Candida glabrata 0161 at 16 to 32 microg/ml incubated for 24 hrs by XTT reagent based assay relative to control; assay type: functional; conditions: dose 16-32 µg/ml, at 16 to 32 µg/mL
Cryptococcus neoformans [8] = test: Inhibition of urease production in Cryptococcus neoformans H99 at 0.125 microg/ml by photographic analysis relative to control; assay type: functional
[9] = AUC (0 to infinity) in male ICR mouse at 2 mg/kg, iv measured after 24 hrs by LC-MS/MS analysis; assay type: ADME, organism-based; conditions: in vivo
Cryptococcus neoformans [10] = test: Antifungal activity against Cryptococcus neoformans H99 assessed as inhibition of fungal growth at <0.0078 microg/ml incubated for 72 hrs by microplate reader analysis; assay type: functional, organism-based; conditions: dose < 0.0078 µg/ml
Cryptococcus neoformans [11] = test: as §1, with “cysts formation in brain cortex” for “cytoplasmic loosening”, “5” for “20”; assay type: functional, organism-based; conditions: time 5.0 day
Cryptococcus neoformans [12] = test: Antifungal activity against Cryptococcus neoformans H99 assessed as inhibition of fungal growth at 4 microg/ml incubated for 48 hrs by spot-plating assay; assay type: functional, organism-based; conditions: dose 4.0 µg/ml
[Candida] auris [13] = Antifungal activity against Candida auris 0030 assessed as inhibition of fungal growth incubated for 48 to 72 hrs by microplate reader analysis; assay type: functional, organism-based; conditions: Candidozyma auris, time 48-72 hrs
Nakaseomyces glabratus [14] = test: Upregulation of TRX1 gene expression in Candida glabrata 0161 incubated for 8 hrs by qRT-PCR analysis; assay type: functional
[15] = Cmax in male ICR mouse at 2 mg/kg, iv measured after 24 hrs by LC-MS/MS analysis; assay type: ADME, organism-based; conditions: in vivo
Cryptococcus neoformans [16] = test: Upregulation of TRR1 gene expression in Cryptococcus neoformans H99 at 4 microg/ml incubated for 8 hrs by qRT-PCR analysis; assay type: functional; conditions: dose 4.0 µg/ml

In the case of `Nc1cc(=O)n(C(=S)Nc2ccc(C3CCCCC3)cc2)[nH]1`, the Activity (Nakaseomyces glabratus [1]) is reported as “Active”, the Activity (Cryptococcus neoformans [2]) is reported as “Active” and the IC50 at 48 h [3] is reported as 13.9 µg/mL (≈ 44 µM). For the same compound, the Activity (Cryptococcus neoformans [4]) was “Active”, the Activity ([Candida] auris [5]) was “Active” and the “fold change (FC)” value (Cryptococcus neoformans [6]) was roughly 1000. For the same compound, the “inhibition (INH)” value (Nakaseomyces glabratus [7]) was roughly 100%, the inhibition at 0.125 µg/mL (Cryptococcus neoformans [8]) was 100% and the AUC(0-inf) [9] was 2100 ng·h/mL. The Activity (Cryptococcus neoformans [10]) was “Not active; Decrease In Inhibitory Potency Observed”, the Activity (Cryptococcus neoformans [11]) was “Active” and the Activity (Cryptococcus neoformans [12]) was “Moderate_effect”. For the same compound, the Activity ([Candida] auris [13]) was “Active”, the Activity (Nakaseomyces glabratus [14]) was “Active” and the Cmax [15] was 2810 ng/mL. The Activity (Cryptococcus neoformans [16]) was “Active”.
